Source: patent publication US6914064B2, “1,4-Disubstituted piperazine derivatives useful as uro-selective α1-adrenoceptor blockers” (Ranbaxy Laboratories Limited, priority 2000, dated 2005)
Counter-ions that a name gives are not always drawn.

What was measured:
α1A adrenoceptor = target: T1, α1A adrenoceptor (Rattus norvegicus, UniProt P43140); test: Receptor binding assay, displacement of [3H]prazosin, rat submaxillary membranes; settings: for Ki: [3H]prazosin displacement, rat submaxillary membranes, read-out: α1A (Rat submaxillary) Ki; for Selectivity α1B/α1A: ratio of Ki α1B (rat liver) / α1A (rat submaxillary)
T1 construct: from tissue; host or cells: rat submaxillary gland membranes
T1 sequence (P43140 1-466): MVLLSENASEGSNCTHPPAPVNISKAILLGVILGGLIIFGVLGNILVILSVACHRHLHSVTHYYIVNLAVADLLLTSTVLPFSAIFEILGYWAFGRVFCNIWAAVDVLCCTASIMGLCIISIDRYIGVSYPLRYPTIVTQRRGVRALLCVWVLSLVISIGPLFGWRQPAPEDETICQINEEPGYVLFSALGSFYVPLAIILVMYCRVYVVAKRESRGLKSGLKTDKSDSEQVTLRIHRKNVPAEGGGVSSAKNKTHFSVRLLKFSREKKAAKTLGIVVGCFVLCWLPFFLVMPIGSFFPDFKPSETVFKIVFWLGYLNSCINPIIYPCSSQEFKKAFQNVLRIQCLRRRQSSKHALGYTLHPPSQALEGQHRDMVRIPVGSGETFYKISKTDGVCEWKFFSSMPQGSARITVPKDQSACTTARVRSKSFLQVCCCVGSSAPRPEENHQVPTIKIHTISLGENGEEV
Method: Receptor binding assays were performed using native α-adrenoceptors.
(§1) Submaxillary glands were isolated immediately after sacrifice. The liver was perfused with buffer (Tris HCl 50 mM, NaCl 100 mM, 10 mM EDTA pH 7.4). The tissues were homogenised in 10 volumes of buffer (Tris HCl 50 mM, NaCl 100 mM, EDTA 10 mM, pH 7.4). The homogenate was filtered through two layers of wet gauze and filtrate was centrifuged at 500 g for 10 min. The supernatant was subsequently centrifuged at 40,000 g for 45 min. The pellet thus obtained was resuspended in the same volume of assay buffer (Tris HCl 50 mM, EDTA 5 mM, pH 7.4) and were stored at −70° C. until the time of assay.
(§2) The membrane homogenates (150-250 μg protein) were incubated in 250 μl of assay buffer (Tris HCl 50 mM, EDTA 5 mM, pH 7.4) at 24-25° C. for 1 h. Non-specific binding was determined in the presence of 300 nM prazosin. The incubation was terminated by vacuum filtration over GF/B fibre filters. The filters were then washed with ice cold 50 mM Tris HCl buffer (pH 7.4). The filtermats were dried and bound radioactivity retained on filters was counted.The IC50 & Kd were estimated by using the non-linear curve fitting program using G Pad Prism software.

α1B adrenoceptor = target: T2, α1B adrenoceptor (Rattus norvegicus, UniProt P15823); test: Receptor binding assay, displacement of [3H]prazosin, rat liver membranes; settings: [3H]prazosin displacement, rat liver membranes; read-out: α1B (Rat liver) Ki
T2 construct: from tissue; host or cells: rat liver membranes
T2 sequence (P15823 1-515): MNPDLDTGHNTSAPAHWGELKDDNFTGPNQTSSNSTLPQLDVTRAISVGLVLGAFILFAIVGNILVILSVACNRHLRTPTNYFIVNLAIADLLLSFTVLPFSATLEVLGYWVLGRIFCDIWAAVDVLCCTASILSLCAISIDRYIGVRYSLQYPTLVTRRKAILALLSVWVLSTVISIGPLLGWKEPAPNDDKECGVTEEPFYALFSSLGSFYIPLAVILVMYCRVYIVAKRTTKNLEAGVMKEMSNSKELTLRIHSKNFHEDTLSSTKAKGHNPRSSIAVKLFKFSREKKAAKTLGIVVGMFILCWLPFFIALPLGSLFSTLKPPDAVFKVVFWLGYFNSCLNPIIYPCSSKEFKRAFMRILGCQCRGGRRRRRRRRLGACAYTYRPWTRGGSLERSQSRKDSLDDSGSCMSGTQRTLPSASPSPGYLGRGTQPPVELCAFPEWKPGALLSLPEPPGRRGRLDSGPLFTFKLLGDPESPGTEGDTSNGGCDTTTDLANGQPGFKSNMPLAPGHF
Method: Receptor binding assays were performed using native α-adrenoceptors. The affinity of different compounds for α1A and α1B adrenoceptor subtypes was evaluated by studying their ability to displace specific [^3H]prazosin binding from the membranes of rat submaxillary and liver respectively (Michel et al, Br J Pharmacol, 98, 883-889 (1989)). The binding assays were performed according to U'Prichard et al. (Eur J Pharmacol, 50:87-89 (1978)) with minor modifications.
as §1
as §2, with “software. The value of inhibition constant Ki was calculated from competitive binding studies by using Cheng & Prusoff equation (Cheng & Prusoff, Biochem Pharmacol, 1973,22: 3099-3108), Ki=IC50/(1+L/Kd) where L is the concentration of [^3H]prazosin used in the particular experiment (Table I).” for “software.”

Structure (SMILES) | melting point [°C] | Ki (α1A adrenoceptor) [nM] | Selectivity α1B/α1A (α1A adrenoceptor) | Ki (α1B adrenoceptor) [nM]
Cl.O=C1C2CC=CCC2C(=O)N1CCCN1CCN(Cc2ccccc2)CC1 (stereo not drawn) [Compound 14, 2-[3-{4-(Benzyl)piperazin-1-yl}propyl]-3a,4,7,7a-tetrahydro-1H-isoindole-1,3(2H)-dione hydrochloride] | 275 to 278 | > 500 | 1 | > 500
Cl.O=C1C2CC=CCC2C(=O)N1CCCN1CCN(c2ccc([N+](=O)[O-])cc2)CC1 (stereo not drawn) [Compound 16, 2-[3-{4-(4-Nitrophenyl)piperazin-1-yl}propyl]-3a,4,7,7a-tetrahydro-1H-isoindole-1,3(2H)-dione hydrochloride] | 259.5 to 261 | > 500 | 1 | > 500
COc1cccc(O)c1N1CCN(CCCN2C(=O)C3CC=CCC3C2=O)CC1.Cl (stereo not drawn) [Compound 28, 2-[3-{4-(2-Methoxy-6-hydroxyphenyl)piperazin-1-yl}propyl]-3a,4,7,7a-tetrahydro-1H-isoindole-1,3(2H)-dione hydrochloride] | 267 to 268 | > 500 | 1 | > 500
COc1ccc(N2CCN(CCCN3C(=O)C4CC=CCC4C3=O)CC2)c(OC)c1.Cl (stereo not drawn) [Compound 21, 2-[3-{4-(2,4-Dimethoxyphenyl)piperazin-1-yl}propyl]-3a,4,7,7a-tetrahydro-1H-isoindole-1,3(2H)-dione hydrochloride] | 226 to 227 | > 500 | 1 | > 500
Cl.O=C1C2CC=CCC2C(=O)N1CCCN1CCN(CC=Cc2ccccc2)CC1 (stereo not drawn) [Compound 15, 2-[3-{4-(Cinnamyl)piperazin-1-yl}propyl]-3a,4,7,7a-tetrahydro-1H-isoindole-1,3(2H)-dione hydrochloride] | 263 to 265 | > 500 | 1 | > 500
CC(C)(C)c1ccc(N2CCN(CCCN3C(=O)C4CC=CCC4C3=O)CC2)cc1.Cl (stereo not drawn) [Compound 27, 2-[3-{4-(4-tert-Butylphenyl)piperazin-1-yl}propyl]-3a,4,7,7a-tetrahydro-1H-isoindole-1,3(2H)-dione hydrochloride] | 264 to 265 | > 500 | 1 | > 500
O=C1[C@H]2CC=CC[C@H]2C(=O)N1CCCN1CCN(C(c2ccc(F)cc2)c2ccc(F)cc2)CC1 (as salt: hydrochloride) [Compound 19, 2-[3-{4-(Bis-4-fluorophenyl)methylpiperazin-1-yl}propyl]-3a,4,7,7a-tetrahydro-1H-isoindole-1,3(2H)-dione hydrochloride] | 235 to 236 |  |  | 
Cc1ccccc1N1CCN(CCCN2C(=O)[C@H]3CC=CC[C@H]3C2=O)CC1 (as salt: hydrochloride) [Compound 03, 2-[3-{4-(2-Methylphenyl)piperazin-1-yl}propyl]-3a,4,7,7a-tetrahydro-1H-isoindole-1,3(2H)-dione hydrochlolide] | 186 to 187 |  |  | 

Continued by falling Ki (α1A adrenoceptor), values first:

melting point [°C] | Ki (α1A adrenoceptor) [nM] | Selectivity α1B/α1A (α1A adrenoceptor) | Ki (α1B adrenoceptor) [nM] | Structure (SMILES)
221 to 223 | 83 | 4.8 | 398 | Cl.O=C1C2CC=CCC2C(=O)N1CCCN1CCN(c2cccc(Cl)c2)CC1 (stereo not drawn) [Compound 02, 2-[3-{4-(3-Chlorophenyl)piperazin-1-yl}propyl]-3a,4,7,7a-tetrahydro-1H-isoindole-1,3(2H)-dione hydrochloride]
228 to 230 | 80 | 4.5 | 363 | Cl.O=C1C2CC=CCC2C(=O)N1CCCN1CCN(c2ccc(F)cc2)CC1 (stereo not drawn) [Compound 04, 2-[3-{4-(4-Fluorophenyl)piperazin-1-yl}propyl]-3a,4,7,7a-tetrahydro-1H-isoindole-1,3(2H)-dione hydrochloride]
248 to 249 | 48 | 0.78 | 37 | Cc1ccc(N2CCN(CCCN3C(=O)C4CC=CCC4C3=O)CC2)cc1Cl.Cl (stereo not drawn) [Compound 17, 2-[3-{4-(3-Chloro-4-methylphenyl)piperazin-1-yl}propyl]-3a,4,7,7a-tetrahydro-1H-isoindole-1,3(2H)-dione hydrochloride]
184 to 185 | 48 | 13 | 611 | COc1ccccc1N1CCN(CC(C)CN2C(=O)C3CC=CCC3C2=O)CC1.Cl (stereo not drawn) [Compound 30, 2-[3-{4-(2-Methoxyphenyl)piperazin-1-yl}-2-methylpropyl]-3a,4,7,7a-tetrahydro-1H-isoindole-1,3(2H)-dione hydrochloride]
210 to 211 | 46.8 | 11 | > 500 | Cl.O=C1C2CC=CCC2C(=O)N1CCCN1CCN(c2ccc(Cl)cc2Cl)CC1 (stereo not drawn) [Compound 20, 2-[3-{4-(2,4-Dichlorophenyl)piperazin-1-yl}propyl]-3a,4,7,7a-tetrahydro-1H-isoindole-1,3(2H)-dione hydrochloride]
193 to 195 | 38 | 13 | > 500 | COc1ccc(OC)c(N2CCN(CCCN3C(=O)C4CC=CCC4C3=O)CC2)c1.Cl (stereo not drawn) [Compound 26, 2-[3-{4-(2,5-Dimethoxyphenyl)piperazin-1-yl}propyl]-3a,4,7,7a-tetrahydro-1H-isoindole-1,3(2H)-dione hydrochloride]
203 to 204 | 36 | 13 | 469 | Cl.O=C1C2CC=CCC2C(=O)N1CCCN1CCN(c2ccccc2F)CC1 (stereo not drawn) [Compound 06, 2-[3-{4-(2-Fluorophenyl)piperazin-1-yl}propyl]-3a,4,7,7a-tetrahydro-1H-isoindole-1,3(2H)-dione hydrochloride]
 | 32.5 | 5 | 168 | Cc1ccccc1N1CCN(CCCN2C(=O)[C@H]3CC=CC[C@H]3C2=O)CC1 [Compound 03, 2-[3-{4-(2-Methylphenyl)piperazin-1-yl}propyl]-3a,4,7,7a-tetrahydro-1H-isoindole-1,3(2H)-dione hydrochlolide]
 | 5.26 | 15 | 81 | O=C1[C@H]2CC=CC[C@H]2C(=O)N1CCCN1CCN(C(c2ccc(F)cc2)c2ccc(F)cc2)CC1 [Compound 19, 2-[3-{4-(Bis-4-fluorophenyl)methylpiperazin-1-yl}propyl]-3a,4,7,7a-tetrahydro-1H-isoindole-1,3(2H)-dione hydrochloride]
